Measurements: PubChem BioAssay (NCI)
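1) Cells in 96-well plates. 2) Compound, 48 h, 5 concentrations. 3) Linear interpolation between surrounding doses. 4) Unreached endpoint = highest concentration. GI50 is the concentration that inhibits growth by half. At the TGI there is no net growth.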

Legend:
Assay in all cases: growth of human tumour cells (NCI), 48 h
MDA-N = system: MDA-N
MDA-MB-435 = system: MDA-MB-435
RXF-631 renal = system: RXF-631 renal
SN12K1 renal = system: SN12K1 renal

Structure (SMILES) | TGI (MDA-N) [µM] | TGI (MDA-MB-435) [µM] | TGI (SN12K1 renal) [µM] | also measured
Cc1ccc(S(=O)(=O)OCC(=O)O)cc1 | > 100 |  |  | 
CCCCCC(=O)NC(=S)Nc1nn[nH]n1 | > 100 | > 100 |  | 
N=C(N)c1ccc(N=Nc2c(O)ccc3c2[nH]c2ccccc23)cc1 | 50.6 | > 39.6 |  | 
COc1ccc(/C(Cl)=C(\C=O)c2ccc(F)cc2)cc1OC |  |  |  | TGI (RXF-631 renal): 49.2 µM
C[C@]12CCc3nc(Nc4ccccc4)sc3C1=CC[C@@H]1[C@@H]2CC[C@]2(C)/C(=N/NC(N)=S)CC[C@@H]12 |  | > 100 |  | GI50 (MDA-MB-435): 3.05 µM
O=C(NC(Cc1ccc(I)cc1)C(=O)O)c1ccc(Br)cc1 (stereo not drawn) |  |  | > 100 | 
Nc1ccc(N=Nc2ccccc2)cc1 | > 100 | > 100 |  | 
Nc1ccc2[nH]c3c(-c4ccccc4)nccc3c2c1 |  |  | > 100 | 
Cc1[nH]c(=O)[nH]c(=O)c1/C=C/C(=O)O |  |  | > 1000 | 
